From patent US11866433B2, “Diarylthiohydantoin compound as androgen receptor antagonist” (CHIA TAI TIANQING PHARMACEUTICAL GROUP CO., LTD., priority 2017, dated 2024)

Key:
androgen receptor (AR) = target: T1, androgen receptor (AR) (Homo sapiens, UniProt P10275); assay: Antagonism of compounds on nuclear translocation of androgen receptor (PathHunter NHR cell lines); type: cell-based; details: antagonist mode, agonist 6a-Fluorotestosterone 0.06 μM (EC80)
T1 sequence (P10275 1-920): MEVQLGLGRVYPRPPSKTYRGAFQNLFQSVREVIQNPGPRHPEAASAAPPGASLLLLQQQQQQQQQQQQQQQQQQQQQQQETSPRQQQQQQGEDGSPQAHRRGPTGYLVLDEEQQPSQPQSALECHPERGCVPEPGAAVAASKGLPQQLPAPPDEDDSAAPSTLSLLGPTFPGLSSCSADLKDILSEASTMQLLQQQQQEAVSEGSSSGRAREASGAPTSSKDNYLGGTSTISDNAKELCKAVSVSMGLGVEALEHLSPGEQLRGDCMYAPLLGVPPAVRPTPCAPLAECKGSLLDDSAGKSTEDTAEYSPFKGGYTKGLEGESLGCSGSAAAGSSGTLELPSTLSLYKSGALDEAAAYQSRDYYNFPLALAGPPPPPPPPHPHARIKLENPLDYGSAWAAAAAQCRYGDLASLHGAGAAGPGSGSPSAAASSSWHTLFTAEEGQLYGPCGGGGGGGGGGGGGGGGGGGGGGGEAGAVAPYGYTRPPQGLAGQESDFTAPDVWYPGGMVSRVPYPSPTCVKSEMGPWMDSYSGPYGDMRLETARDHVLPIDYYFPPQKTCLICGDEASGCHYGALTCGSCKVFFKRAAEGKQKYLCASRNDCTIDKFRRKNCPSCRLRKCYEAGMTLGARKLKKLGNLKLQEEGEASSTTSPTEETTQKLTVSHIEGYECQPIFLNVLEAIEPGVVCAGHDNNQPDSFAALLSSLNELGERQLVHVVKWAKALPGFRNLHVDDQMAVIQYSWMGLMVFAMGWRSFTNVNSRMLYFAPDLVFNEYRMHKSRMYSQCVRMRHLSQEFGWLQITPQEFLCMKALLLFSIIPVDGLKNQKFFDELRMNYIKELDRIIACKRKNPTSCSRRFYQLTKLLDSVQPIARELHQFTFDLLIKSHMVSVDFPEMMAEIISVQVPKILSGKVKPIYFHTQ
Procedure: Example 75 Test of Antagonism of Compounds on Nuclear Translocation of Androgen Receptor (AR)
1. PathHunter NHR cell lines were recovered and cultured for amplification.
2. The cells were inoculated onto a 384-well plate prior to testing, and incubated at 37° C. The serum for culture was filtered with charcoal-dextran to reduce the hormone level therein.
3. In the detection of the antagonistic function, a compound was added to the cells and incubated for 60 min. The working concentration of the test compound was diluted from 10 μM at a 3-fold concentration gradient, respectively including: […]. Then, an agonist 6a-Fluorotestosterone 0.06 μM (concentration: EC80, i.e., 80% agonistic compound concentration) was added, and the mixture was incubated at 37° C. or at room temperature for 3-16 h.
4. Signal detection: 12.5 μL or 15 μL (50%, v/v) PathHunter detection mixed solution (kit: DiscoverX product catalog number: 93-0001 series) was added, and incubated at room temperature for 1 h. The chemiluminescent signal was read with a PerkinElmer Envision™ instrument.
5. Data analysis: The compound activity was analyzed with CBIS data analysis software (ChemInnovation, CA). The calculation formula of the inhibition percent of the antagonist is as follows: IC50 inhibition ratio (%)=[…]×(1−(average RLU value of the test compound−average RLU value of the blank control group)/(average RLU value of EC80 control group−average RLU value of the blank control group)).

[1] = tested on: Human prostate cancer LNCaP-FGC cells; assay: In vivo pharmacodynamic study on subcutaneous xenograft tumor model of human prostate cancer LNCaP-FGC cells; set-up: species or system CB-17 SCID mice; details: after 21 days of administration, vs solvent control
Procedure: 2.1 Experimental Animals • Species: Mice • Strain: CB-17 SCID mice • Week age and body weight: 6-8 weeks old, 18-22 g body weight • Gender: male • Supplier: Beijing Vital River Laboratory Animal Technology Co., Ltd • Animal Certificate No.: 11400700184227 3. Experimental Method and Steps 3.1 Cell Culture
Human prostate cancer LNCaP-FGC cells (ATCC, Manassas, Virginia) were cultured in vitro monolayers under the culture conditions of RPM11640 medium supplemented with […] fetal bovine serum at 37° C. with 5% CO2. Routine digestion treatment with trypsin-EDTA was performed twice a week for passage. When the cell saturation was 80%-90%, the cells were collected, counted, and inoculated.
0.2 mL (10×10^6) of LNCaP-FGC cells (10×10^6+Matrigel, 1:1) was inoculated subcutaneously to the right back of each CB-17 SCID mouse. When the average tumor volume reached 100-150 mm^3, administration in groups was started.
The tumor diameters were measured with a vernier caliper twice a week. The calculation formula of the tumor volume is: V=0.5a×b^2, wherein a and b represent the long diameter and the short diameter of the tumor, respectively. The antitumor efficacy of the compounds were evaluated by TGI (%) or a relative tumor proliferation rate T/C (%). TGI(%)=[(1−(average tumor volume of a treatment group at the end of drug administration−average tumor volume of the treatment group at the beginning of drug administration))/(average tumor volume of the vehicle control group at the end of treatment−average tumor volume of the vehicle control group at the beginning of treatment)]×100%. The calculation formula of the relative tumor proliferation rate T/C (%) is as follows: T/C %=TRTV/CRTV×100% (TRTV: RTV of a treatment group; CRTV: RTV of a negative control group). The relative tumor volume (RTV) is calculated based on the tumor measurement results, and the calculation formula is RTV=Vt/V0, wherein V0 is the average tumor volume measured at the time of administration in groups (i.e., do), Vt is the average tumor volume at one measurement, and TRTV and CRTV are the data obtained on the same day.
The statistical analysis includes mean and standard error of mean (SEM) of the tumor volume at each time point for each group. […] The comparison between two groups was analyzed by T-test, and the comparison between three or more groups was analyzed by one-way ANOVA. If there was a significant difference in the F value, the Games-Howell method was used for testing. If there was no significant difference in the F value, the Dunnet (2-sided) method was used for analysis. All data analysis was performed by using SPSS 17.0. “p<0.05” was considered a significant difference.

SMILES: CCc1cc(=O)n2cc(N3C(=S)N(c4ccc(C#N)c(Cl)c4)C(=O)C3(C)C)cc(F)c2n1 [Compound 58]
- IC50 (androgen receptor (AR)): 950 nM
- TGI ([1]; 10 mg/kg PO QD): 62.75%
- relative tumor proliferation rate T/C ([1]; 10 mg/kg PO QD): 43.93%
- TGI ([1]; 20 mg/kg PO QD): 76.16%
- relative tumor proliferation rate T/C ([1]; 20 mg/kg PO QD): 32.37%

SMILES: CCc1nc(OCCO)c2cc(N3C(=S)N(c4ccc(C#N)c(C(F)(F)F)c4)C(=O)C3(C)C)cc(F)c2n1 [Compound 10]
- IC50 (androgen receptor (AR)): 1710 nM
- TGI ([1]; 50 mg/kg PO QD): 83.0%
- relative tumor proliferation rate T/C ([1]; 50 mg/kg PO QD): 23.8%

SMILES: CCc1cc(=O)n2cc(N3C(=S)N(c4ccc(C#N)c(C(F)(F)F)c4)C(=O)C3(C)C)cc(F)c2n1 [Compound 35]
- IC50 (androgen receptor (AR)): 2310 nM
- TGI ([1]; 10 mg/kg PO QD): 59.36%
- relative tumor proliferation rate T/C ([1]; 10 mg/kg PO QD): 47.39%
- TGI ([1]; 20 mg/kg PO QD): 76.00%
- relative tumor proliferation rate T/C ([1]; 20 mg/kg PO QD): 32.47%
